Read-outs that look alike come from different tables or passages of the source.
Tests used:
[1] = Solubility screening of bifenthrin in various solvents; type: physicochemical
Protocol: Four-milliliter (mL) vials are charged with bifenthrin (10 to 50 wt %), a stir bar, and solvent (90 to 50 wt %). The vials are capped and taped to seal. The vials are secured in a vial rack and shaken on a laboratory shaker for 12 hours at ambient lab temperature (21° C.) and humidity (51%). After 12 hours each sample set is evaluated for solubility of solid:
Yes—Homogeneous clear solution
No—Solids present in the sample

[2] = obtained from Hansen's book, pages 399 and 418; cited from earlier work
[3] = bifenthrin 10 wt % in solvent, shaken 12 hours at 21° C., humidity 51%
[4] = bifenthrin 20 wt % in solvent, shaken 12 hours at 21° C., humidity 51%
[5] = bifenthrin 30 wt % in solvent, shaken 12 hours at 21° C., humidity 51%
[6] = bifenthrin 40 wt % in solvent, shaken 12 hours at 21° C., humidity 51%
[7] = bifenthrin 50 wt % in solvent, shaken 12 hours at 21° C., humidity 51%

| Compound | Solubility of Bifenthrin, 10 wt % [1] | Solubility of Bifenthrin, 20 wt % [1] | Solubility of Bifenthrin, 30 wt % [1] | Solubility of Bifenthrin, 40 wt % [1] | Solubility of Bifenthrin, 50 wt % [1] | Solubility of Bifenthrin, 10 wt % [1, 3] | Solubility of Bifenthrin, 20 wt % [1, 4] | Solubility of Bifenthrin, 30 wt % [1, 5] | Solubility of Bifenthrin, 40 wt % [1, 6] | Solubility of Bifenthrin, 50 wt % [1, 7] | Hansen Parameter δH (hydrogen bonding) [2] | Hansen Parameter δP (polar) [2] |
| --- | --- | --- | --- | --- | --- | --- | --- | --- | --- | --- | --- | --- |
| CCCCCCCCCCCC(=O)OCC [DIAMOSOLV ™ 323, ethyl laurate] | YES | YES | NO | NO | NO |  |  |  |  |  |  |  |
| CC(CO)OCC(C)Oc1ccccc1 (centres unmarked) [DOWANOL ™ DiPPH, dipropylene glycol phenyl ether] | YES | NO | NO | NO | NO |  |  |  |  |  |  |  |
| OCCOc1ccccc1 [DOWANOL ™ EPH, ethylene glycol phenyl ether] |  |  |  |  |  | NO | NO | NO | NO | NO |  |  |
| CCCCOCCOCCOC(C)=O [BUTYL CARBITOL ™ ACETATE, diethylene glycol n-butyl ether acetate] | YES | YES | YES | NO | NO |  |  |  |  |  | 8.2 (J/cc)^1/2 | 4.1 (J/cc)^1/2 |
| CC(=O)OCC(C)OC(C)=O (centres unmarked) [DOWANOL ™ PGDA, propylene glycol diacetate] | YES | YES | YES | NO | NO |  |  |  |  |  |  |  |
| CCCCOC(C)COC(C)COC(C)CO (centres unmarked) [DOWANOL ™ TPNB, tripropylene glycol n-butyl ether] | YES | YES | NO | NO | NO |  |  |  |  |  |  |  |
| CCOCCOCCO [CARBITOL ™, diethylene glycol monoethyl ether] | YES | YES | NO | NO | NO |  |  |  |  |  |  |  |
| CCCCOCCOC(=O)c1ccccc1 [XU40782.00, ethylene glycol n-butyl ether benzoate] | YES | YES | YES | NO | NO |  |  |  |  |  |  |  |
| CCCCOCCOC(C)=O [BUTYL CELLOSOLVE ™ ACETATE, ethylene glycol n-butyl ether acetate] |  |  |  |  |  | YES | YES | YES | YES | NO | 8.8 (J/cc)^1/2 | 4.5 (J/cc)^1/2 |
| CC(O)COc1ccccc1 (centres unmarked) [DOWANOL ™ PPH, propylene glycol phenyl ether] | YES | NO | NO | NO | NO |  |  |  |  |  |  |  |
| polyethylene glycol monophenyl ether [DOWANOL ™ EPH6] |  |  |  |  |  | NO | NO | NO | NO | NO |  |  |
